Results from the supplement of paper PMC10307832.

What follows are cell lines tested with O=c1ncccn1[C@@H]1O[C@H](CO)[C@@H](O)[C@H]1O [Zebularine] + Cc1nc(NC(=O)N2CCC[C@H]2C(N)=O)sc1-c1ccnc(C(C)(C)C(F)(F)F)c1 [Alpelisib] (partner 2 µM) (assay: relative viability (nuclei count vs DMSO), 5 days (fraction); higher = more cells survive). Conditions: first compound 1 µM.
Outline: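 Each reported value is a median over duplicate plates. It expresses relative viability: treated-well nuclei count divided by vehicle-well nuclei count. Lung cancer cell lines in 1536-well plates were dosed by pin tool a day after seeding, alone with one drug or with a fixed anchor-drug dose plus five library-drug doses (not always all listed) in √10 steps, and nuclei were counted after 5 days.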

Cell Line | relative viability
NCI-H2085 | 1.04
Calu-6 | 1
HCC-366 | 0.409
NCI-H1666 | 1.16
NCI-H596 | 0.476
SK-MES-1 | 0.902
COR-L23 | 0.872
COR-L 105 | 1.24
IA-LM | 0.768
HCC-44 | 0.818
A549 | 0.923
NCI-H2009 | 1.18
NCI-H661 | 0.653
SK-LU-1 | 1.2
NCI-H1299 | 1.05
NCI-H2228 | 0.782
NCI-H1792 | 0.8
NCI-H2023 | 0.697
NCI-H1563 | 0.932

Same assay, conditions: first compound 3.162 µM

Cell Line | relative viability
NCI-H727 | 0.531
EBC-1 | 0.832
NCI-H1703 | 0.337
NCI-H1993 | 0.76
SW 1573 | 0.792
NCI-H838 | 1.05
LCLC-103H | 0.945
NCI-H520 | 0.835
NCI-H2126 | 0.694
EMC-BAC-2 | 0.583
NCI-H2085 | 0.977
Calu-6 | 0.929
HCC-366 | 0.434
NCI-H1666 | 0.984
NCI-H596 | 0.462
SK-MES-1 | 1.01
COR-L23 | 0.926
COR-L 105 | 0.952
IA-LM | 0.584
HCC-44 | 0.938
A549 | 0.658
NCI-H2009 | 1.13
NCI-H661 | 0.498
SK-LU-1 | 0.875
NCI-H1299 | 1.16
NCI-H2228 | 0.615
NCI-H1792 | 0.622
NCI-H2023 | 0.551
NCI-H1563 | 0.888

Same assay, conditions: first compound 10 µM

Cell Line | relative viability
NCI-H727 | 0.564
EBC-1 | 0.711
NCI-H1703 | 0.307
SW 1573 | 0.448
NCI-H838 | 0.707
LCLC-103H | 0.95
NCI-H520 | 0.429
NCI-H2126 | 0.764
EMC-BAC-2 | 0.456
NCI-H2085 | 0.802
Calu-6 | 0.869
HCC-366 | 0.161
NCI-H1666 | 0.852
NCI-H596 | 0.427
SK-MES-1 | 0.596
COR-L23 | 0.431
COR-L 105 | 0.807
IA-LM | 0.494
HCC-44 | 0.463
NCI-H2009 | 0.97
NCI-H661 | 0.333
SK-LU-1 | 0.66
NCI-H1299 | 0.836
NCI-H2228 | 0.632
NCI-H1792 | 0.514
NCI-H2023 | 0.533
NCI-H1563 | 0.927

Same assay, conditions: first compound 31.62 µM

Cell Line | relative viability
NCI-H727 | 0.665
EBC-1 | 1.02
NCI-H1703 | 0.325
NCI-H1993 | 0.68
SW 1573 | 0.743
NCI-H838 | 0.857
LCLC-103H | 0.904
NCI-H520 | 0.375
NCI-H2126 | 0.687
EMC-BAC-2 | 0.878
NCI-H2085 | 0.96
Calu-6 | 0.786
HCC-366 | 0.509
NCI-H1666 | 0.932
NCI-H596 | 0.566
SK-MES-1 | 0.575
COR-L23 | 0.361
COR-L 105 | 0.96
IA-LM | 1.13
HCC-44 | 0.639
A549 | 0.625
NCI-H2009 | 0.947
NCI-H661 | 0.737
SK-LU-1 | 0.745
NCI-H1299 | 1.16
NCI-H2228 | 0.693
NCI-H1792 | 0.215
NCI-H2023 | 0.53
NCI-H1563 | 0.955

Same assay, conditions: first compound 100 µM

Cell Line | relative viability
NCI-H727 | 0.485
EBC-1 | 0.857
NCI-H1703 | 0.353
NCI-H1993 | 0.699
SW 1573 | 0.646
NCI-H838 | 0.404
LCLC-103H | 0.761
NCI-H520 | 0.275
NCI-H2126 | 0.437
EMC-BAC-2 | 0.773
NCI-H2085 | 0.535
Calu-6 | 0.302
HCC-366 | 0.182
NCI-H1666 | 0.618
NCI-H596 | 0.483
SK-MES-1 | 0.345
COR-L23 | 0.265
COR-L 105 | 1.1
IA-LM | 0.996
HCC-44 | 0.265
A549 | 0.317
NCI-H2009 | 0.392
NCI-H661 | 0.603
SK-LU-1 | 0.468
NCI-H1299 | 0.529
NCI-H2228 | 0.374
NCI-H1792 | 0.316
NCI-H2023 | 0.287
NCI-H1563 | 0.909
